Measured values: ChEMBL document CHEMBL1142341, “Vinyl ester-based cyclic peptide proteasome inhibitors” (Bioorg Med Chem Lett, 2008)
Residues, ends and D or L forms follow the SMILES beside them. *: point of attachment. X1 = CCOC(=O)/C=C/[C@H](CC(C)C)N*

Test: Half life in human plasma
Format: ADME, cell-free

| half-life [h] | SMILES |
| --- | --- |
| > 6 | CCOC(=O)/C=C/[C@H](CC(C)C)NC(=O)C[C@@H]1NC(=O)[C@H](CC(C)C)NC(=O)[C@H](CC(C)C)NC(=O)[C@H](Cc2ccccc2)NC1=O (cyclo(D(X1)FLL)) |
| > 6 | CCOC(=O)/C=C/[C@H](CC(C)C)NC(=O)C[C@@H]1NC(=O)[C@H](CO)NC(=O)[C@H](C(C)C)NC(=O)[C@H](Cc2ccccc2)NC1=O (cyclo(D(X1)FVS)) |
| > 6 | CCOC(=O)/C=C/[C@H](CC(C)C)NC(=O)CC[C@@H]1NC(=O)[C@H](CC(C)C)NC(=O)[C@H](CC(C)C)NC(=O)[C@H](Cc2ccccc2)NC1=O (cyclo(E(X1)FLL)) |
